Measurements reported in article PMC6651196, “Preclinical Evaluation of Radiolabeled Peptides for PET Imaging of Glioblastoma Multiforme” (Molecules, 2019).
Entries after “also recorded” stand apart in the source; their conditions may differ. Read-outs that look alike come from different tables or passages of the source.

Assays:
U-87 MG tumor xenografts = assay: µPET/CT imaging
Method: (§1) SCID female mice (Harlan, Indianapolis, IN, USA) at 6–8 weeks of age were subcutaneously injected into the right flank with 5 × 10^6 U-87 MG cells mixed with Matrigel Matrix (Corning, Corning, NY, USA) at a 1:1 ratio. The tumor growth was continuously monitored by caliperation. When the tumor volume reached 100–300 mm^3 (i.e., 6–8 weeks after inoculation of cells), the mice were used for ex vivo biodistribution studies or µPET/CT imaging. The experimental animals were housed in a specific-pathogen-free animal facility. […] The number of animals was reduced as much as possible (n = 3 per group and time point) for all in vivo experiments. The tracer injection and small animal imaging were carried out under 2% isoflurane anesthesia (FORANE, Abbott Laboratories, Abbott Park, IL, USA) to minimize animal suffering and to prevent animal motion.
(§2) Experimental animals were imaged using microPET/SPECT/CT system Albira (Bruker, Billerica, Massachusetts, USA). Mice were r.o. injected with the radiolabeled tracer at a dose of 5–10 MBq (corresponding to 1–2 μg of peptide for animals injected with ^68Ga-peptides) per animal. Anesthetized animals were placed in a prone position in the Albira system before the start of imaging. Static PET/CT images were acquired over 30 min interval starting 30 and 90 minutes after injection. A 10-min PET scan (axial FOV 148 mm) was performed, followed by a double CT scan (axial FOV 65 mm, 45 kVp, 400 μA, at 400 projections). Scans were reconstructed with the Albira software (Bruker Biospin Corporation, Woodbridge, CT, USA) using the maximum likelihood expectation maximization (MLEM) and filtered back-projection (FBP) algorithms. The PMOD software (PMOD Technologies, Zurich, Switzerland) was used for the image analysis and tracer uptake quantification. Three-dimensional volume rendered images were created in VolView software (Kitware, Clifton Park, NY, USA). The data obtained by PET scan were quantified in PMOD via manually selected volumes of interest (VOIs) and expressed as standardized uptake values (SUV). Using SUVs for the tumor and brain regions the tumor to brain ratios were calculated.

Ex vivo biodistribution = settings: mouse; for tissue to tissue ratio at 0.5 h / tissue to tissue ratio at 1.5 h: female, SCID, total radioactivity, from ex vivo biodistribution; for tissue to tissue ratio at 1.5 h: 90 min p.i.
Method: (§3) SCID female mice (Harlan, Indianapolis, IN, USA) at 6–8 weeks of age were subcutaneously injected into the right flank with 5 × 10^6 U-87 MG cells mixed with Matrigel Matrix (Corning, Corning, NY, USA) at a 1:1 ratio. The tumor growth was continuously monitored by caliperation. When the tumor volume reached 100–300 mm^3 (i.e., 6–8 weeks after inoculation of cells), the mice were used for ex vivo biodistribution studies or µPET/CT imaging. […] The number of animals was reduced as much as possible (n = 3 per group and time point) for all in vivo experiments. The tracer injection and small animal imaging were carried out under 2% isoflurane anesthesia (FORANE, Abbott Laboratories, Abbott Park, IL, USA) to minimize animal suffering and to prevent animal motion.
(§4) For ex vivo biodistribution studies, radiolabeled tracers were diluted with saline. The prepared solutions were applied retro-orbitally (r.o.) to the mice [35] at a dose of 1–2 MBq per mouse corresponding to 0.2–0.4 µg of the peptide. The mice were sacrificed by cervical dislocation 30 min and 90 min post-injection and organs of interest (blood, spleen, pancreas, stomach, intestine, kidneys, liver, heart, lungs, muscle, bone, and tumor) were collected. The samples were weighed and the radioactivity was measured by an automatic gamma counter. The accumulation of radiotracer in studied organs was expressed as a percentage of injected dose per gram of organ.

[1] = Plasma stability, HPLC radiochemical purity; settings: human
Method: (§5) 100 μL of the labeled peptide was mixed with 400 μL of human plasma (Sigma Aldrich, St. Louis, MO, USA). This mixture was incubated at 37 °C and the samples for HPLC analysis to determine the radiochemical purity were taken at selected time points (30, 60, and 120 min). The individual samples were adjusted before the injection on HPLC—every sample was mixed with acetonitrile (Roth, Karlsruhe, Germany) and placed on the shaker (450 rpm) for 60 s and then centrifuged (20,000 RCF, 3 min), followed by removing the supernatant. Finally, the supernatant was analyzed using HPLC.

U-87 MG cells = assay: Cell uptake assay with and without excess of cold peptide; assay type: cell-based, human; settings: for Accumulation in U-87 MG cells: 90 min, 37 °C
Method: Human glioblastoma multiforme U-87 MG cells (ATCC, Manassas, VA, USA) were cultured in Dulbecco’s Modified Eagle Medium (Sigma Aldrich, St. Louis, MO, USA) supplemented with 10% fetal bovine serum, 0.1 mM non-essential amino acids and 1.0 mM sodium pyruvate at 37 °C in a 5% carbon dioxide humidified incubator. The cells were subcultured and used for experiments at a confluency of 70–90%.
Cell uptake assay was performed in 24-well plates with U-87 MG cell at high confluency. The assay itself was carried out using a dedicated buffer instead of the regular cell culture media. The buffer consists of 25 mM Tris/HCl, 5.4 mM KCl, 1.8 mM CaCl2, 0.8 mM MgSO4, 5 mM glucose, 140 mM NaCl in H2O [34].
The cells were incubated with ^68Ga-labeled RGD peptides (20 µM) alone and also with excess (2 mM) of cold RGD peptide for 90 min (37 °C) in the buffer described above. The cells were rinsed with PBS, lysed in 0.1 M NaOH and measured for radioactivity in a gamma counter (PerkinElmer, Waltham, Massachusetts, USA). The uptake was calculated as the mean of the percentage of the applied dose ± standard deviation.

[2] = Partition coefficient (log P), octanol/PBS
Method: Labeled peptide was diluted with 600 μL of phosphate-buffered saline (PBS), and 50 µL of the solution was mixed in the test tube with 450 μL of PBS and 500 μL of octanol. The sample was placed on the shaker (1000 RPM) for 20 min and then centrifuged at 15,000 RPM for 1 min. Subsequently, 50 µL from both octanol and water layer were collected and measured on an automatic gamma counter (PerkinElmer, Waltham, Massachusetts, USA). Partition coefficient was calculated as the decadic logarithm of the ratio of octanol/water activity.

µPET/CT imaging = settings: female, SCID, mouse, tumor and brain (PET volumes of interest), total radioactivity
Method: as §1, §2

[3] = Plasma protein binding, size-exclusion spin column; settings: human plasma, 37 °C
Method: (§6) 10 µL of the labeled peptide was mixed with 190 μL of human plasma (Sigma Aldrich, St. Louis, MO, USA), and incubated at 37 °C. Twenty-five µL of sample were collected at 30, 60, and 120 min time intervals for the determination of protein binding. The samples were separated by size-exclusion chromatography (illustra MicroSpin G-50 Column, GE Healthcare, UK) by centrifugation (2000 × g, 1 min). The eluate (protein-bound) and appropriate column (non-protein-bound) were measured on an automatic gamma counter. The percentage of plasma protein binding (PPB) was calculated as the ratio of the activity in the eluate and the activity of the whole sample (column plus the eluate). The blank determination of protein binding, i.e., incubation of the radiotracer in PBS buffer followed by separation of the sample on gel column was performed as the control step.

[4] = Stability in the presence of competing chelator (DTPA), HPLC radiochemical purity; settings: 37 °C
Method: 50 μL of ^68Ga-labeled peptides were mixed with 150 μL of 6 mM DTPA solution (Sigma Aldrich, St. Louis, MO, USA). The mixture was then incubated at 37 °C and the samples were processed for HPLC analysis to determine the radiochemical purity were taken at selected time points (30, 60, and 120 min) and directly injected on HPLC.

[5] = Stability in physiological pH (pH 7), HPLC radiochemical purity; settings: 37 °C
Method: The peptides were labeled as described above. Subsequently, 100 μL of 1.14 M sodium acetate was added to adjust the pH to 7.0. The mixture was incubated at 37 °C and the samples for HPLC analysis to determine the radiochemical purity were taken at selected time points (30, 60, and 120 min) and directly injected on HPLC.

[6] = Stability in the presence of competing metal (FeCl3), HPLC radiochemical purity; settings: 37 °C
Method: 50 μL of ^68Ga-labeled peptides were mixed with 150 μL of 0.1 mM FeCl3 (Sigma Aldrich, St. Louis, MO, USA). The mixture was incubated at 37 °C and the samples for HPLC analysis to determine the radiochemical purity were taken at selected time points (30, 60 and 120 min) and directly injected on HPLC.

in vitro = settings: human, plasma
Method: as §5

in vivo [7] = settings: female, SCID, mouse, total radioactivity
Method: as §3, §4

[8] = human, plasma
Method: as §6

U-87 MG tumor SCID mouse [9] = settings: in vivo
Method: as §3, §4

in vivo [10] = settings: female, SCID, mouse, total radioactivity; remark: listed apart in the source
Method: as §1, §2

[11] = mouse, in vivo
Method: as §3, §4

U-87 MG tumor SCID mouse [12] = assay: Ex vivo biodistribution; settings: 90 min p.i., from ex vivo biodistribution
Method: as §3, §4

[13] = tumor and blood, Tumor to blood ratio, 30 min p.i.
[14] = tumor and blood, Tumor to blood ratio
[15] = tumor and kidney, Tumor to kidney ratio, 30 min p.i.
[16] = tumor and kidney, Tumor to kidney ratio
[17] = tumor and muscle, Tumor to muscle ratio, 30 min p.i.
[18] = tumor and muscle, Tumor to muscle ratio

Structure (SMILES) | tissue to tissue ratio at 0.5 h (Ex vivo biodistribution; [13]) | tissue to tissue ratio at 1.5 h (Ex vivo biodistribution; [14]) | tissue to tissue ratio at 0.5 h (Ex vivo biodistribution; [15]) | tissue to tissue ratio at 1.5 h (Ex vivo biodistribution; [16]) | tissue to tissue ratio at 0.5 h (Ex vivo biodistribution; [17]) | tissue to tissue ratio at 1.5 h (Ex vivo biodistribution; [18]) | remaining at 0.5 h [1] | remaining at 1 h [1] | remaining at 2 h [1] | logP [2] | tissue to tissue ratio at 1.5 h (µPET/CT imaging) | Plasma Protein Binding (%) ([3]; incubation 30 min) | Plasma Protein Binding (%) ([3]; incubation 60 min) | Plasma Protein Binding (%) ([3]; incubation 120 min) | % Stability in 6 mM DTPA ([4]; 60 min) | % Stability in 6 mM DTPA ([4]; 120 min) | % Stability in pH 7 ([5]; 30 min) | % Stability in pH 7 ([5]; 60 min) | % Stability in pH 7 ([5]; 120 min) | Accumulation in U-87 MG cells (U-87 MG cells; normal cells, 20 µM) | other results
OC[C@H]1OC(O)[C@H](F)[C@@H](O)[C@@H]1O (stereo partly drawn) [^18F-FDG, ^18F-fluorodeoxyglucose, reference compound] | – | – | – | – | – | – | – | – | – | – | – | – | – | – | – | – | – | – | – | – | PET/CT visualization of the tumor (U-87 MG tumor xenografts; mouse, in vivo): allowed clear imaging of the tumor
Cc1cn([C@H]2C[C@H]([18F])[C@@H](CO)O2)c(=O)[nH]c1=O [^18F-FLT, ^18F-fluorothymidine, reference compound] | – | – | – | – | – | – | – | – | – | – | – | – | – | – | – | – | – | – | – | – | PET/CT visualization of the tumor (U-87 MG tumor xenografts; 30 and 90 min p.i.): could also be imaged
N=C(N)NCCC[C@@H]1NC(=O)[C@H](CCCCNC(=O)CN2CCN(CC(=O)O)CCN(CC(=O)O)CCN(CC(=O)O)CC2)NC(=O)[C@@H](Cc2ccccc2)NC(=O)[C@H](CC(=O)O)NC(=O)CNC1=O [^68Ga-DOTA-c(RGDfK), DOTA-c(RGDfK), metal not drawn] | 1.09 | 14.7 | 0.29 | 1.43 | 2.42 | 13.5 | 99.23 ± 0.18% | 99.14 ± 0.19% | 98.81 ± 0.33% | -3.43 ± 0.11 | 4.7 | 2.39% | 2.65% | 3.29% | 99.39 ± 0.54% | 99.06 ± 0.57% | 99.60 ± 0.23% | 99.51 ± 0.13% | 99.49 ± 0.20% | lowest | Uptake in U-87 cells compared to ^68Ga-NODAGA-c(RGDyK)2 (U-87 MG cells; normal cells): about 50%; % Stability in 6 mM DTPA ([4]; 30 min): 99.39 ± 0.43%; % Stability in 0.1 M FeCl3 ([6]; 30 min): 97.04 ± 1.24%; % Stability in 0.1 M FeCl3 ([6]; 60 min): 96.76 ± 1.21%; % Stability in 0.1 M FeCl3 ([6]; 120 min): 95.83 ± 1.04%
CSCC[C@H](NC(=O)[C@H](CC(C)C)NC(=O)CNC(=O)[C@H](Cc1ccccc1)NC(=O)[C@H](Cc1ccccc1)NC(=O)[C@H](CCC(N)=O)NC(=O)[C@H](CCC(N)=O)NC(=O)[C@@H]1CCCN1C(=O)[C@H](CCCCN)NC(=O)[C@@H]1CCCN1C(=O)[C@H](CCCNC(=N)N)NC(=O)CN1CCN(CC(=O)O)CCN(CC(=O)O)CCN(CC(=O)O)CC1)C(N)=O [^68Ga-DOTA-substance P, DOTA-substance P, metal not drawn] | – | – | – | – | – | – | – | – | – | – | – | – | – | – | – | – | – | – | – | 0.3 % of the applied dose | Accumulation in U-87 MG cells (U-87 MG cells; blocked with excess (2 mM) of cold peptide): 0.3 % of the applied dose; Uptake in U-87 cells compared to ^68Ga-NODAGA-c(RGDyK)2 (U-87 MG cells; normal cells): about 50%; remaining at 0.5 h (in vitro): 98.2%; remaining at 1 h (in vitro): 98.2%; remaining at 2 h (in vitro): 98%; tissue to tissue ratio at 0.5 h (in vivo [7]; Tumor to blood ratio): 0.93; tissue to tissue ratio at 1.5 h (in vivo [7]; Tumor to blood ratio): 2.84; tissue to tissue ratio at 0.5 h (in vivo [7]; Tumor to kidney ratio): 0.14; tissue to tissue ratio at 1.5 h (in vivo [7]; Tumor to kidney ratio): 0.04; tissue to tissue ratio at 0.5 h (in vivo [7]; Tumor to muscle ratio): 3.1; tissue to tissue ratio at 1.5 h (in vivo [7]; Tumor to muscle ratio): 6.45; PET/CT visualization of the tumor (U-87 MG tumor xenografts; 30 and 90 min p.i., listed as 68Ga-substance P): did not visualize the tumor; also recorded: did not observe any substantial signal in tumors; fraction unbound [8]: ~0.71; Tumor to blood ratio (U-87 MG tumor SCID mouse [9]): 2.8; Accumulation in kidneys (U-87 MG tumor SCID mouse [9]; 1.5 h): 15 % ID/g; tissue to tissue ratio at 1.5 h (in vivo [10]): 4.25; tissue uptake at 1.5 h ([11]; Accumulation in kidneys): 15 to 17 %ID/g; tissue uptake at 0.5 h ([11]; Tumor uptake): 2.14 %ID/g; logP: -3.03 ± 0.33
N=C(N)NCCC[C@@H]1NC(=O)[C@H](CCCCNC(=O)CC[C@H](NC(=O)CCC(C(=O)O)N2CCN(CC(=O)O)CCN(CC(=O)O)CC2)C(=O)NCCCC[C@@H]2NC(=O)[C@@H](Cc3ccc(O)cc3)NC(=O)[C@H](CC(=O)O)NC(=O)CNC(=O)[C@H](CCCNC(=N)N)NC2=O)NC(=O)[C@@H](Cc2ccc(O)cc2)NC(=O)[C@H](CC(=O)O)NC(=O)CNC1=O (stereo partly drawn) [^68Ga-NODAGA-c(RGDyK)2, NODAGA-c(RGDyK)2, metal not drawn] | 2.3 | 16.4 | 0.61 | 0.91 | 5.84 | 10.5 | 99.51 ± 0.17% | 99.31 ± 0.11% | 99.02 ± 0.33% | -3.34 ± 0.13 | 4.14 | 1.74% | 1.89% | 3.40% | 99.39 ± 0.54% | 99.06 ± 0.57% | 99.83 ± 0.11% | 99.74 ± 0.18% | 99.62 ± 0.21% | highest accumulation; also recorded: highest binding | tissue uptake at 0.5 h (Ex vivo biodistribution; tumor, Tumor uptake, 30 min p.i.): 6 %ID/g; PET/CT visualization of the tumor (U-87 MG tumor xenografts; 30 and 90 min p.i.): highest accumulation of radioactivity; also recorded: best tumor images; % Stability in 0.1 M FeCl3 ([6]; 30 min): 98.66 ± 0.82%; % Stability in 0.1 M FeCl3 ([6]; 60 min): 99.22 ± 0.19%; % Stability in 0.1 M FeCl3 ([6]; 120 min): 99.17 ± 0.18%
N=C(N)NCCC[C@@H]1NC(=O)[C@H](CCCCNC(=O)CCC(C(=O)O)N2CCN(CC(=O)O)CCN(CC(=O)O)CC2)NC(=O)[C@@H](Cc2ccc(O)cc2)NC(=O)[C@H](CC(=O)O)NC(=O)CNC1=O (stereo partly drawn) [^68Ga-NODAGA-c(RGDyK), NODAGA-c(RGDyK), metal not drawn] | 1.9 | 23.1 | 0.36 | 0.9 | 3.23 | 6.51 | 99.23 ± 0.18% | 99.14 ± 0.19% | 98.81 ± 0.33% | -3.05 ± 0.62 | 4 | 2.74% | 1.31% | 3.21% | 99.20 ± 0.37% | 99.23 ± 0.32% | 99.82 ± 0.05% | 99.78 ± 0.12% | 99.72 ± 0.22% | – | Tumor to blood ratio (U-87 MG tumor SCID mouse [12]): 23.1; % Stability in 6 mM DTPA ([4]; 30 min): 99.65 ± 0.07%; % Stability in 0.1 M FeCl3 ([6]; 30 min): 99.24 ± 0.44%; % Stability in 0.1 M FeCl3 ([6]; 60 min): 98.56 ± 0.60%; % Stability in 0.1 M FeCl3 ([6]; 120 min): 98.94 ± 0.42%
